Consider seven compounds from publication PMC7177638 (International Journal of Molecular Sciences, 2020).

As a reminder, the IC50 is the point on the concentration scale where inhibition reaches its midpoint. Read a low IC50 as greater potency in that assay.

For series [1], the system named is LoVo-OXP cancer cells. The series is described as follows: MTT cytotoxicity test, 72 h, oxaliplatin-resistant cells. The format is cell-based, human. As to conditions: LoVo OXP. From the text:
(§1) Human colon (HCT-15 and LoVo) and pancreatic (PSN-1) carcinoma cell lines were obtained from the American Type Culture Collection (ATCC, RocKville, MD). The 2008 human ovarian cancer cells were kindly provided by Prof. G. Marverti (Dept. of Biomedical Science of Modena University, Italy). Human cervical carcinoma (A431) cells were kindly provided by Prof. F. Zunino (Division of Experimental Oncology B, Istituto Nazionale dei Tumori, Milan, Italy). […] Cell lines were maintained in the logarithmic phase at 37 °C in a 5% carbon dioxide atmosphere using RPMI-1640 or F-12 culture medium (Euroclone) containing 10% fetal calf serum (Euroclone, Milan, Italy), antibiotics (50 units per mL penicillin and 50 μg mL^−1 streptomycin), and 2 mM L-glutamine.
(§2) The growth inhibitory effect toward the tumor cell lines was evaluated by the MTT test. Briefly, 3-8·10^3 cells/well, depending upon the growth characteristics of the cell lines, were seeded in 96-well microplates in growth medium (100 µL) and then incubated at 37 °C in a 5% carbon dioxide atmosphere. After 24 h, the medium was removed and replaced with a fresh one containing the compound to be tested at the appropriate concentration. Triplicate cultures were established for each treatment. After 72 h, each well was treated with 10 µL of a 5 mg·mL^−1 MTT (3-(4,5-dimethylthiazol-2-yl)-2,5-diphenyltetrazolium bromide) saline solution and, after 5 h of incubation, 100 µL of a sodium dodecylsulfate (SDS) solution in HCl 0.01 M were added. Following an overnight incubation, the inhibition of cell growth induced by the tested complexes was evaluated by measuring the absorbance of each well at 570 nm using a Bio-Rad 680 microplate reader (Bio-Rad Laboratories S.r.l., Segrate (MI), Italy).
On the technique in general: Formazan colour is commonly taken as a measure of viable cells.

The nature of series [2]: Stability in solution followed by 1H-NMR (solvent-assisted photoreduction). In kind it is physicochemical. As to conditions: DMSO-d6, room temperature, not shielded from light. From the text: (5.4–6.5 ppm). Most likely, compound 4 underwent a solvent-assisted reduction process favored by light, as previously observed for similar compounds such as cis,trans,cis-[PtCl2(OH)2(cis-1,4-DACH)] [19, 20]. […] This reduction/solvation could also be observed in other solvents, such as D2O and CD3OD.
As for compound 4, the reduction is probably fostered by the presence of axial chlorido ligand(s).
The ^13C NMR signals are influenced by the asymmetry of the complex with respect to the equatorial plane with two peaks at 125.4 and 125.2 ppm for the vinylic carbons, two signals at 60.2 and 59.3 ppm for the methynic carbons, and two signals at 33.1 and 32.6 ppm for the methylenic carbons (Figure S10).

A short description of series [3]: Cyclic voltammetry, cathodic reduction potential in aqueous solution. The format is physicochemical. As to conditions: values normalized vs. SCE; phosphate buffer pH 7.4, 5 mM NaCl, 5·10^−4 M complex, scan rate 0.020 V s^−1. How it is done:
The electrochemical characterization of compounds 1–6, performed by using cyclic voltammetry (CV), was carried out with the aim of determining the cathodic reduction potentials in aqueous solution (Ep^c).
Cyclic voltammetry (CV) measurements were carried out with a potentiostat CHI 1230B (CH Instruments, Inc., Austin, TX, USA) in a standard three-electrode electrochemical cell. The working electrode was a glassy carbon (GC) electrode, the reference electrode was a KCl-saturated Ag/AgCl and the counter was a Pt sheet. The GC electrode was carefully polished with alumina powder, then rinsed with distilled water and dried, to obtain a reproducible surface for all the experiments. All the measurements, conducted in triplicate, were carried out in buffered aqueous solutions containing the Pt(IV) compound at a concentration of 5·10^−4 M in 10 mL phosphate buffer (PB, pH = 7.4, I = 0.1) and 5 mM NaCl as supporting electrolyte. A blank solution (without Pt(IV) complex) was also tested. All the peak potentials were measured with a scan rate of 0.020 V s^−1; the initial potential was chosen equal to the open-circuit potential and the scan direction was negative. All the CV plots were acquired after an equilibration time of 2 min in order to make the GC surface reproducible.

In series [4] the test system is PSN-1 human pancreatic carcinoma cells. The series is described as follows: MTT cytotoxicity test, 72 h. The format is cell-based. As to conditions: PSN-1, MTT. The procedure:
(§3) The in vitro cytotoxic activities of compounds 1–6 were assayed on a panel of human cancer cell lines containing examples of pancreatic (PSN-1), colon (HCT-15 and LoVo), cervical (A431), and ovarian (2008) cancers. Cisplatin and oxaliplatin were used as reference compounds and were tested under the same experimental conditions.
as §1, §2

The test system of series [5] is 2008 human ovarian cancer cells. The series can be described thus: MTT cytotoxicity test, 72 h. In kind it is cell-based. The note with it: 2008, MTT. How it is done: as §3, §1, §2
Series [6] has as its system LoVo human colon carcinoma cells. The series is described as follows: MTT cytotoxicity test, 72 h. The format is cell-based. The procedure:
as §3, §1, §2

Series [7] has as its system A431 human cervical carcinoma cells. The series is described as follows: MTT cytotoxicity test, 72 h. The format is cell-based. How it is done:
as §3, §1, §2

Series [8] has as its system HCT-15 human colon carcinoma cells. The series is described as follows: MTT cytotoxicity test, 72 h. The format is cell-based. As to conditions: HCT-15, MTT. How it is done:
as §3, §1, §2

The nature of series [9]: XPS Pt4f surface reduction of Pt(IV) to Pt(II) under X-ray irradiation. The format is physicochemical. As to conditions: for % of Reduction: after 30 min irradiation, calculated from Pt(IV) abundances. The text has this: The Pt(IV) complexes were also characterized by X-ray photoelectron spectroscopy (XPS) in order to obtain information on the surface chemical composition and on the platinum speciation. Despite the surface sensitivity of the technique (topmost 5–8 nm), the analysis on homogeneous samples provides useful information on the chemical environment of all detected elements. […] Two doublets were found: one is attributed to Pt(II) (BE Pt4f7/2 = 72.9 ± 0.2 eV and BE Pt4f5/2 = 76.2 ± 0.2 eV), while the second doublet is attributed to Pt(IV) (BE Pt4f7/2 = 75.6 ± 0.2 eV and BE Pt4f5/2 = 79.0 ± 0.2 eV).
The Pt(IV)/Pt(II) relative abundance varies from case to case; moreover, if the X-ray degradation is monitored after 30 min exposure to the X-ray beam, an increase of the Pt(II) relative abundance is observed (Figure 8b).
X-ray Photoelectron Spectroscopy (XPS) analyses were run on a PHI 5000 Versa Probe II Scanning XPS Microprobe spectrometer (ULVAC PHI Inc., Kanagawa, Japan). Measurements were carried out using a monochromatic Al Kα source (X-ray spot 200 μm) at a power of 50.3 W. Wide scan and detailed spectra (Pt4f, C1s, Cl2p, N1s, O1s) were acquired in Constant Analyzer Energy (CAE) mode with a pass energy of 117.40 and 29.35 eV, respectively. An electron gun was used for charge compensation (1.0 V, 20.0 μA). Due to the X-ray sensitivity of Pt(IV) complexes, the Pt4f spectral region was acquired first. X-ray degradation kinetics experiments were performed analyzing the same sample area after 30 min. Data processing was performed by using the MultiPak software v. 9.8.0.19.

Series [10] relates to human A431 cancer cell spheroids. The series is described as follows: Cytotoxicity towards 3D spheroids, acid phosphatase (APH) assay. In kind it is cell-based. The note with it: A431 3D spheroids, 72 h, APH assay. The text has this:
The remarkable cell-killing effect observed against human A431 squamous cervical carcinoma two-dimensional (2D) cultured cells prompted us to evaluate the in vitro antitumor activity of compounds 1–6 on three-dimensional (3D) cell cultures. As opposed to 2D monolayer cultures, cells growing in 3D culture systems form spheroids that comprise cells in various stages. […] Such cellular heterogeneity resembles that of in vivo tumors, making 3D cell cultures more predictive than conventional 2D monolayer cultures in screening antitumor drugs.
Spheroid cultures were obtained by seeding 2.5 × 10^3 A431 cancer cells/well in a round bottom non-treated tissue culture 96 well-plate (Greiner Bio-one, Kremsmünster, Austria) in phenol red free RPMI-1640 medium (Sigma Chemical Co.) containing 10% fetal calf serum (FCS) and supplemented with 20% methyl cellulose stock solution.
An APH modified assay was used for determining cell viability in 3D spheroids, as previously described. IC50 values were calculated with a four parameter logistic (4-PL) model.

The test system of series [11] is panel of human tumor cell lines (A431, 2008, HCT-15, LoVo, LoVo OXP, LoVo MDR). The note with it: cited from earlier work.
The subject of series [12] is LoVo OXP cells. As to conditions: cited from earlier work.
Series [13] relates to panel of human cancer cell lines (PSN-1, HCT-15, LoVo, A431, 2008). The series is described as follows: MTT cytotoxicity, average over the panel of human cancer cell lines. In kind it is cell-based. The note with it: mean over the cell line panel, 72 h. How it is done: as §3
[17, 30] Thus, the pharmacological activity decreases in the order 3 >> 1 ≈ 2 ≈ 4 > 5 > 6.
as §2

Series [14] relates to cisplatin-resistant ovarian C13* cell line. On the set-up: method as in PMID 22788918. As to conditions: cited from earlier work.
Series [15] deals with oxaliplatin-resistant colon LoVo-OXP cell line. Set-up: method as in PMID 22788918. As to conditions: cited from earlier work.
The nature of series [16]: logPo/w by shake-flask method with ICP-MS Pt determination. The format is physicochemical. The note with it: n-octanol / 0.15 M KCl in water.

Where only a bound is given, the exact number is not on record here.

For `NC1CC=CCC1N.O=C1[O][Pt]([Cl])([Cl])[O]C1=O` (racemic) [Complex 4, cis,trans,cis-[Pt(OXA)Cl2(DACHEX)]], the IC50 in series [1] was greater than 2000 nM; in series [4] it was 3080 ± 1100 nM; in series [5] it was 420 ± 100 nM; in series [6], 390 ± 30 nM; in series [7] it was 430 ± 200 nM; in [8] it was 1170 ± 200 nM. Further, it took 9900 ± 2600 nM to reach half-maximal inhibition in series [10] (IC50). Moreover, the “stability in solution (reduction to Pt(II) / solvation)” value in series [2] is “quite unstable”. Also, the “Cathodic reduction potential Ep^c” value in [3] is given as −0.72 V. In addition, in [9], the “% of Reduction” value is listed as 67%.
In the case of `NC1CC=CCC1N.O=C1[O][Pt][O]C1=O` (racemic) [[Pt(OXA)(DACHEX)]], the “ability to overcome oxaliplatin resistance (LoVo vs LoVo-OXP)” value in [11] is “equally active”. Also, in series [11] (panel of human tumor cell lines), the “cytotoxic activity compared with cisplatin and oxaliplatin” value is “better than that of cisplatin and comparable to or better than that of oxaliplatin”. Besides, in series [12], the lipid droplets formation entry is reported as “induced lipid droplets formation”.
On to `[NH2][Pt]([NH2])([Cl])[Cl]` [CDDP, cisplatin, reference compound], for which the concentration for half-maximal inhibition (IC50) was 8600 nM in [13]; 16600 ± 4200 nM in series [4]; 2230 ± 100 nM in series [5]; 7600 ± 1500 nM in series [6]; 1430 ± 400 nM in series [7]; 15300 ± 2600 nM in [8]. The compound also registered an IC50 in series [10] of 58300 ± 900 nM.
With `CC(=O)[O][Pt]1([O]C(C)=O)[O]C(=O)C(=O)[O]1.NC1CC=CCC1N` [Complex 2, cis,trans,cis-[Pt(OXA)(AcO)2(DACHEX)]], the IC50 in series [1] was greater than 2000 nM; in [4], 2850 ± 700 nM; in series [5], 330 ± 500 nM; in series [6], 590 ± 100 nM; in series [7], 550 ± 100 nM; in series [8], 1270 ± 500 nM. For the same compound, the 50% inhibitory concentration (IC50) in series [10] was 3400 ± 900 nM. Also, in series [3], the “Cathodic reduction potential Ep^c” value is −1.03 V. For the same compound, the “% of Reduction” value in [9] is recorded as 65%.
As for `NC1CCC(N)CC1.[Cl][Pt+2][Cl]` (stereo not drawn) [Kiteplatin, [PtCl2(cis-1,4-DACH)]], the “activity against cell line” value in series [14] and in series [15] was “active” in each case.
Regarding `O=C1[O][Pt]2([NH][C@@H]3CCCC[C@H]3[NH]2)[O]C1=O` [OXP, oxaliplatin, reference compound], the IC50 in series [1] amounted to 14300 ± 2100 nM; in series [13], 3100 nM; in [4], 7900 ± 3500 nM; in series [5], 1530 ± 900 nM; in [6] it was 1100 ± 600 nM; in [7] it was 3800 ± 1300 nM. Further, the IC50 in series [8] came out at 1150 ± 400 nM; in series [10], 36300 ± 1200 nM.
With “cis,trans,cis-[Pt(OXA)(OH)2(DACHEX)] [Complex 1]”, the half-maximal inhibitory concentration (IC50) was greater than 2000 nM in series [1]; 3150 ± 800 nM in series [4]; 720 ± 100 nM in [5]; 840 ± 300 nM in series [6]; 490 ± 200 nM in series [7]; 440 ± 100 nM in [8]. In series [10], the IC50 amounted to 5800 ± 800 nM. Moreover, the “Cathodic reduction potential Ep^c” value in series [3] was −1.05 V. In series [16], this compound gave a logPo/w of −3.05. For the same compound, in series [9] (after 30 min X-ray irradiation), the “% Relative Abundance Pt(IV)/(II), After 30 min Irradiation” value was 48/52. Moreover, the “% of Reduction” value in series [9] is 44%. Moreover, in series [9] (onset of the experiment), the “% Relative Abundance Pt(IV)/(II), As Irradiated” value is recorded as 86/14.
